{"source": "paper PMC5405074", "about": "“Receptor-Mediated Melanoma Targeting with Radiolabeled α-Melanocyte-Stimulating Hormone: Relevance of the Net Charge of the Ligand” (Frontiers in Endocrinology, 2017)", "key": {"MC1R (B16-F1 cells)": {"target": "T1, MC1R (B16-F1 cells) (Mus musculus, UniProt Q01727)", "T1 construct": "endogenous in cells; host or cells: mouse B16-F1 melanoma cells", "T1 sequence (Q01727 whole entry)": "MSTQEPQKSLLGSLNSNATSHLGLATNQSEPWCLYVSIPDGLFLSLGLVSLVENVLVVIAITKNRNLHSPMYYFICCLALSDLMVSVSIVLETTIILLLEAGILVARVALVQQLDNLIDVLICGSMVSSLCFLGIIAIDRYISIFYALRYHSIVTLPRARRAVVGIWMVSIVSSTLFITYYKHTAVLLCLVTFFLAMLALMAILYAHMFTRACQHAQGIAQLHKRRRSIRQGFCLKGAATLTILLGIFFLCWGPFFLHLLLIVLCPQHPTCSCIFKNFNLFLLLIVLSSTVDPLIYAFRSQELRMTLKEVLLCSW", "test": "Competition binding assay with [^125I]-NDP-MSH, mouse B16-F1 melanoma cells", "description": "(§1) Triplicates of 100-µL volumes of B16-F1 or HBL cell suspensions adjusted to 4 × 10^6/mL were incubated in 96-well U-bottom microplates (Falcon 3077). The binding medium consisted of MEM with Earle’s salts, 0.2% BSA, and 0.3 mM 1,10-phenanthroline. This binding medium was called mouse binding medium (MBM). Triplicates of competitor peptide solution (50 µL) yielding final concentrations ranging from 1 × 10^−6 to 1 × 10^−12 M were added. [^125I]NDP-MSH (50,000 cpm) in 50 µL was finally added to each well. The plates were incubated at 15°C for 3 h for B16-F1 cells and at 37°C for 2 h for HBL cells. The incubation was stopped by covering the plates with ice for 10 min. A cell harvester was used to collect cell-bound radioactivity on filters (Packard Unifilter-96 GF/B). The collected radioactivity was counted on a TopCount scintillation counter (Packard) after addition of 50 µL Microscint-20 scintillation cocktail (Perkin Elmer). The IC50 values were calculated with the Prism 6 software (GraphPad Software Inc., San Diego CA, USA).\n(§2) The binding affinity of the peptides to MC1R was assessed by competition binding assays using [^125I]-NDP-MSH as radioligand and both murine B16-F1 and human HBL cells."}, "MC1R (HBL cells)": {"target": "T2, MC1R (HBL cells) (Homo sapiens, UniProt Q01726)", "T2 construct": "endogenous in cells; host or cells: human HBL melanoma cell line", "T2 sequence (Q01726 whole entry)": "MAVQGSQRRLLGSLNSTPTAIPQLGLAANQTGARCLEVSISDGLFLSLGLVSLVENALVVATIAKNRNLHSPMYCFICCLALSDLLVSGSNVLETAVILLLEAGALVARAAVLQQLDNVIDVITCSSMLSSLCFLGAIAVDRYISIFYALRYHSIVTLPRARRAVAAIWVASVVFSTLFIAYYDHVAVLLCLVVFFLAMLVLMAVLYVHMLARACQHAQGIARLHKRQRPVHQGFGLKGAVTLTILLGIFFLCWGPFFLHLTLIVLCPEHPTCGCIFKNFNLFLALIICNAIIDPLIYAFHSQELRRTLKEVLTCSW", "test": "Competition binding assay with [^125I]-NDP-MSH, human HBL melanoma cells", "description": "as §1, §2"}, "[1]": {"test": "Biodistribution of ^111In-labeled peptides in B16-F1 melanoma-bearing mice", "type": "in vivo, mouse (B6D2F1)", "conditions": "female, iv, total radioactivity, ^111In-labeled peptide, 185 kBq i.v., mean ± SEM of three experiments, n = 5 animals each", "description": "(§3) About 5 × 10^5 B16-F1 cells were implanted subcutaneously to female B6D2F1 mice (C57BL/6 × DBA/2F1 hybrids; breeding pairs obtained from IFFA-CREDO, France). Seven days later, 185 kBq of ^111In-labeled ligand in 200 µL PBS/0.1% BSA were injected intravenously into the lateral tail vein of each mouse. Control mice were injected with a mixture of the tracer and 50 µg α-MSH to determine the non-specific uptake of radioligand. The animals were sacrificed 4, 24, and 48 h postinjection, dissected, and the tissues of interest collected, rinsed of excess blood, and weighed. The radioactivity emitted by each organ was measured in a γ-counter to determine the tissue uptake as percentage of the injected dose (ID) per gram of tissue. The total of injected radioactivity per animal was determined by extrapolation from the counts of a standard collected from the injection solution for each animal. Urine samples were collected at 10, 15, and 20 min and 4 h after injection and kept frozen at −80°C until use. Urine (1 vol) was mixed with methanol (2 vol) to precipitate proteins, and the supernatant was analyzed by RP-HPLC/γ-detection, as described in Ref. ([12]).\n(§4) Results are expressed as means ± SEM, unless otherwise stated. The statistical evaluation of data was performed using the one- or two-way ANOVA test. When significant overall effects were obtained by ANOVA, multiple comparisons were made with the Bonferroni correction. P < 0.05 was considered statistically significant. The area under the curve (AUC) was calculated with the GraphPad Prism 6 software for the indicated period of time, using the mean tissue uptake value at each time point."}, "[2]": {"test_system": "B16-F1 tumor-bearing mice", "test": "Biodistribution of ^111In-labeled peptides in B16-F1 melanoma-bearing mice", "type": "in vivo, mouse (B6D2F1)", "description": "as §3, §4"}, "[3]": {"conditions": "B6D2F1 (C57BL/6 × DBA/2F1 hybrids), mouse, blood, read-out: Blood uptake"}, "[4]": {"conditions": "B6D2F1 (C57BL/6 × DBA/2F1 hybrids), mouse, muscle, read-out: Muscle uptake"}, "[5]": {"conditions": "B6D2F1 (C57BL/6 × DBA/2F1 hybrids), mouse, skin, read-out: Skin uptake"}, "[6]": {"conditions": "B6D2F1 (C57BL/6 × DBA/2F1 hybrids), mouse, tumor, read-out: Tumor uptake"}, "[7]": {"conditions": "B6D2F1, mouse, bone, read-out: Bone uptake"}, "[8]": {"conditions": "B6D2F1, mouse, heart, read-out: Heart uptake"}, "[9]": {"conditions": "B6D2F1, mouse, kidney, read-out: Kidney uptake"}, "[10]": {"conditions": "B6D2F1, mouse, liver, read-out: Liver uptake"}, "[11]": {"conditions": "B6D2F1, mouse, lung, read-out: Lung uptake"}, "[12]": {"conditions": "B6D2F1, mouse, pancreas, read-out: Pancreas uptake"}, "[13]": {"conditions": "B6D2F1, mouse, small intestines, read-out: Small intestines uptake"}, "[14]": {"conditions": "B6D2F1, mouse, spleen, read-out: Spleen uptake"}, "[15]": {"conditions": "B6D2F1, mouse, stomach, read-out: Stomach uptake"}, "[16]": {"conditions": "^111In-labeled peptide, 185 kBq i.v., 4 h, mean ± SEM of three experiments, n = 5 animals each"}}, "note": "Like-named read-outs stand apart in the source and are kept apart here. Non-standard residues stand in square brackets, D forms with d. Residues, ends and D or L forms follow the SMILES beside them. *: point of attachment. DOTA = O=C(O)CN1CCN(CC(=O)O)CCN(CC(=O)*)CCN(CC(=O)O)CC1; pY = N[C@@H](Cc1ccc(OP(=O)(O)O)cc1)C(=O)O; Nle = CCCC[C@H](N)C(=O)O"}
{"molecule": "CCCC[C@H](NC(=O)[C@H](Cc1ccc(OP(=O)(O)O)cc1)NC(=O)CNC(=O)CN1CCN(CC(=O)O)CCN(CC(=O)O)CCN(CC(=O)O)CC1)C(=O)N[C@@H](CC(=O)O)C(=O)N[C@@H](Cc1c[nH]cn1)C(=O)N[C@H](Cc1ccccc1)C(=O)N[C@@H](CCCNC(=N)N)C(=O)N[C@@H](Cc1c[nH]c2ccccc12)C(N)=O", "note": "[DOTA-Phospho-MSH2-9, DOTA-Gly-Tyr(P)-Nle-Asp-His-D-Phe-Arg-Trp-NH2] ({DOTA}-G[pY][Nle]DH[dF]RW-NH2)", "values": [{"measurement": "IC50", "setting": "MC1R (B16-F1 cells)", "result": "2.32 ± 0.8", "unit": "nM"}, {"measurement": "IC50", "setting": "MC1R (HBL cells)", "result": "3.03 ± 0.59", "unit": "nM"}, {"measurement": "tissue uptake at 4 h", "setting": "[1]; [3]", "result": 0.02, "unit": "%ID/g"}, {"measurement": "tissue uptake at 24 h", "setting": "[1]; [3]", "result": 0.01, "unit": "%ID/g"}, {"measurement": "tissue uptake at 48 h", "setting": "[1]; B6D2F1 (C57BL/6 × DBA/2F1 hybrids), mouse, bone, read-out: Bone uptake", "result": "0.06 ± 0.01", "unit": "%ID/g"}, {"measurement": "tissue uptake at 4 h", "setting": "[1]; [4]", "result": 0.02, "unit": "%ID/g"}, {"measurement": "tissue uptake at 24 h", "setting": "[1]; [4]", "result": 0.02, "unit": "%ID/g"}, {"measurement": "tissue uptake at 48 h", "setting": "[1]; [4]", "result": 0.02, "unit": "%ID/g"}, {"measurement": "tissue uptake at 4 h", "setting": "[1]; [5]", "result": "0.12 ± 0.03", "unit": "%ID/g"}, {"measurement": "tissue uptake at 24 h", "setting": "[1]; [5]", "result": "0.07 ± 0.02", "unit": "%ID/g"}, {"measurement": "tissue uptake at 48 h", "setting": "[1]; [5]", "result": "0.08 ± 0.02", "unit": "%ID/g"}, {"measurement": "tissue uptake at 24 h", "setting": "[1]; [6]", "result": "2.92 ± 0.12", "unit": "%ID/g"}, {"measurement": "tissue uptake at 48 h", "setting": "[1]; [6]", "result": "1.21 ± 0.18", "unit": "%ID/g"}, {"measurement": "tissue uptake at 4 h", "setting": "[1]; [7]", "result": "0.08 ± 0.01", "unit": "%ID/g"}, {"measurement": "tissue uptake at 24 h", "setting": "[1]; [7]", "result": "0.11 ± 0.02", "unit": "%ID/g"}, {"measurement": "tissue uptake at 4 h", "setting": "[1]; [8]", "result": 0.04, "unit": "%ID/g"}, {"measurement": "tissue uptake at 24 h", "setting": "[1]; [8]", "result": 0.03, "unit": "%ID/g"}, {"measurement": "tissue uptake at 48 h", "setting": "[1]; [8]", "result": 0.03, "unit": "%ID/g"}, {"measurement": "tissue uptake at 24 h", "setting": "[1]; [9]", "result": "1.88 ± 0.11", "unit": "%ID/g"}, {"measurement": "tissue uptake at 48 h", "setting": "[1]; [9]", "result": "1.04 ± 0.07", "unit": "%ID/g"}, {"measurement": "tissue uptake at 4 h", "setting": "[1]; [10]", "result": "0.2 ± 0.01", "unit": "%ID/g"}, {"measurement": "tissue uptake at 24 h", "setting": "[1]; [10]", "result": "0.16 ± 0.02", "unit": "%ID/g"}, {"measurement": "tissue uptake at 48 h", "setting": "[1]; [10]", "result": "0.12 ± 0.01", "unit": "%ID/g"}, {"measurement": "tissue uptake at 4 h", "setting": "[1]; [11]", "result": "0.07 ± 0.02", "unit": "%ID/g"}, {"measurement": "tissue uptake at 24 h", "setting": "[1]; [11]", "result": 0.04, "unit": "%ID/g"}, {"measurement": "tissue uptake at 48 h", "setting": "[1]; [11]", "result": 0.03, "unit": "%ID/g"}, {"measurement": "tissue uptake at 4 h", "setting": "[1]; [12]", "result": "0.05 ± 0.01", "unit": "%ID/g"}, {"measurement": "tissue uptake at 24 h", "setting": "[1]; [12]", "result": 0.03, "unit": "%ID/g"}, {"measurement": "tissue uptake at 48 h", "setting": "[1]; [12]", "result": 0.03, "unit": "%ID/g"}, {"measurement": "tissue uptake at 4 h", "setting": "[1]; [13]", "result": "0.11 ± 0.03", "unit": "%ID/g"}, {"measurement": "tissue uptake at 24 h", "setting": "[1]; [13]", "result": 0.06, "unit": "%ID/g"}, {"measurement": "tissue uptake at 48 h", "setting": "[1]; [13]", "result": 0.06, "unit": "%ID/g"}, {"measurement": "tissue uptake at 4 h", "setting": "[1]; [14]", "result": "0.11 ± 0.01", "unit": "%ID/g"}, {"measurement": "tissue uptake at 24 h", "setting": "[1]; [14]", "result": "0.1 ± 0.01", "unit": "%ID/g"}, {"measurement": "tissue uptake at 48 h", "setting": "[1]; [14]", "result": "0.09 ± 0.01", "unit": "%ID/g"}, {"measurement": "tissue uptake at 4 h", "setting": "[1]; [15]", "result": "0.17 ± 0.08", "unit": "%ID/g"}, {"measurement": "tissue uptake at 24 h", "setting": "[1]; [15]", "result": "0.16 ± 0.02", "unit": "%ID/g"}, {"measurement": "tissue uptake at 48 h", "setting": "[1]; [15]", "result": 0.07, "unit": "%ID/g"}, {"measurement": "Tumor-to-kidney ratio compared with other peptides (in words)", "setting": "[2]; AUC (4–48 h) or overall comparison", "result": "best tumor-to-kidney ratio of all linear MSH peptides so far investigated"}, {"measurement": "Kidney uptake", "setting": "[2]; [16]", "result": "2.68 ± 0.18", "unit": "%ID/g"}, {"measurement": "Tumor uptake", "setting": "[2]; [16]", "result": "7.33 ± 0.47", "unit": "%ID/g"}]}
